Data published in patent EP1105728B1, “MODULATING MULTIPLE LINEAGE KINASE PROTEINS” (CEPHALON, INC., priority 1998, dated 2000).
“And” between values parts separate entries of the source, which are not always exact repeats. Identical values can stand only once. Marks after values point to notes of the source that are not given here.

Tests used:
lumbar motor neurons = experiment: Developmentally regulated motor neuronal death in the chick embryo; assay type: in vivo
From the text: The present example is described in detail in Glicksman, et al., J. Neurobiol., 1998, 35, 361-370, which is incorporated herein by reference in its entirety. On E6, a window in the shell of chick eggs (Spafas, Preston, CT) was made and either vehicle (5% Solutol ™ HS 15, polyethylene glycol 660 hydroxysterate; BASF Aktiengesellschaft, Ludwigshafen, Germany (in phosphate-buffered saline, pH 7.2)) or the specified dose of Compound III-3 in the vehicle was applied directly onto the vascularized chorioallantoic membrane-once daily from E6 to E9 as described in Oppenheim, et al., Science, 1991, 251, 1616-1617, which is incorporated herein by reference in its entirety). Embryos were sacrificed at E10 and their spinal cords were removed, fixed in Carnoy's solution (10% glacial acetic acid, 60% absolute ethanol, 30% chloroform), processed for serial paraffin sections, and stained with thionin. Every 20th section of lumbar segments 1-8 was counted according to previously described criteria (Clarke, et al., Methods In Cell Biology: Cell Death, 1995, Schwart & Osborne, Eds., Academic Press, New York, pp.277-321, which is incorporated herein by reference in its entirety).

[1] = test system: ciliary ganglion (CG) neurons; experiment: Survival of chick embryonic ciliary ganglion neurons; assay type: cell-based
Experimental: (§1) Paravertebral sympathetic ganglia (SG; embryonal day 12 (E12)), dorsal root ganglia (DRG;E9), and ciliary ganglia (CG;E8) were dissected from chick embryos at the indicated embryonic day as described in Lindsay, et al., Dev. Biol., 1985, 112, 319-328, which is incorporated herein by reference in its entirety. After trypsinization and dissociation, the nerve cell suspensions were plated onto polyomithine-laminin-coated culture dishes in Ham's F14 culture medium, supplemented with 10% horse serum. Immediately after plating, survival factors were added at the following concentrations: Nerve growth factor (NGF), 20 ng/ml; ciliary neutrophic factor (CNTF), 10 ng/ml. The cultures were maintained at 37° and 5% CO2 in a humidified environment.
(§2) Neurons were plated in 35 mm culture dishes with grids (Nunc). […] Cell survival was confirmed by vital staining with trypan blue (not shown).

[2] = test system: hypoglossal motor neurons; experiment: Axotomy-induced motor neuronal dedifferentiation in the adult rat (hypoglossal nerve); assay type: in vivo; conditions: for ChAT-Positive Motor Neurons Average/Group / ChAT-Positive Motor Neurons Experimental/Control / ChAT-Positive Motor Neurons %: 7 days; for ChAT-Positive Motor Neurons Experimental/Control: counts ipsilateral/contralateral; for ChAT-Positive Motor Neurons Experimental/Control / ChAT-Positive Motor Neurons %: per animal
Experimental: The left hypoglossal nerve was transected in the neck of adult female Sprague-Dawley rats (120-180 g) under Neumbutol anesthesia, and 50 µl of Compound III-3 or its vehicle (5% Solutol™ HS 15) were applied to a piece of Gelfoam ™ (AJ Buck, Owings Mills, MD), then wrapped around the proximal end of the transected nerve. After 7 days, the animals were anesthetized and perfused with 4% paraformaldehyde in Sorenson's buffer, 0.07 M phosphate, pH 7.2. The brain stem was removed and 40- µm-thick serial coronal sections were cut on a cryostat (Chiu, et al., NeuroReport, 1994, 5, 693-696, which is incorporated herein by reference in its entirety). Every fifth section was processed for ChAT immunohistochemistry as previously described (Chiu, et al., J. Comp. Neurol., 1993, 328, 351-363, which is incorporated herein by reference in its entirety) using a 1:350 dilution of an anti-ChAT monoclonal antibody obtained from Chemicon. Cells that stained clearly above background were counted in stained sections; the number of enumerated cells was expressed as the ratio of the number of ChAT-immunoreactive cells on the axotomized side of the hypoglossal nucleus versus the number of immunoreactive cells on the control (uninjured) side.

chick motoneurons = experiment: Survival of chick embryonic motoneurons; assay type: cell-based
Experimental: Motoneurons (embryonic day 5.5) were isolated with an immunological method according to the procedure set forth in Bloch-Gallego, et al., Development, 1991, 111, 221-232, which is incorporated herein by reference in its entirety, with modifications as described in Weng, et al., NeuroReport, 1996, 7, 1077-1081, which is incorporated herein by reference in its entirety. Purified motoneurons were seeded onto 35 mm tissue culture dishes (Nunc) pre-coated with poly-DL-omithine and laminin (1 µg/ml, Upstate Biotech). […] Muscle extract was supplemented at 30 µg/ml. Compound III-3 was prepared as a 4mM stock solution in DMSO and stored protected from light at 4°C. The final concentration of DMSO in treated and control cultures was 0.125%.
Neurons were plated in 35 mm culture dishes with grids (Nunc). Selected areas of each dish comprising together about 10% of the surface scanned for the presence of phase bright cells immediately after plating and again after 48 h to assess survival percentages. Cell survival was confirmed by vital staining with trypan blue (not shown).

[3] = test system: dorsal root ganglion sensory neurons (DRG); experiment: Survival of chick embryonic dorsal root ganglion sensory neurons; assay type: cell-based
Experimental: as §1, §2

CCSCc1ccc2c(c1)c1c3c(c4c5cc(CSCC)ccc5n5c4c1n2C1CC(O)(C(=O)OC)C5(C)O1)CNC3=O (stereo not drawn) [III-3]
motor neurons rescued (lumbar motor neurons; 1.2 and 1.8 µg/day onto the chorioallantoic membrane): 25%
motor neurons that would normally die rescued (lumbar motor neurons; 2.3 and 7 µg/day onto the chorioallantoic membrane): Forty
concentration at which the survival effect reached a plateau ([1]; 10% serum (Fig. 16)): around 1 µM
survival of CNTF-dependent ciliary ganglion (CG) neurons ([1]; after 24 h, CNTF 10 ng/ml, 10% serum): 76%
CG survival ([1]; after four days): 58%
ChAT-Positive Motor Neurons Average/Group ([2]; 3.6 µg in gel foam): 12.84*
ChAT-Positive Motor Neurons Experimental/Control ([2]; 3.6 µg in gel foam): 55/420 and 72/572
ChAT-Positive Motor Neurons % ([2]; 3.6 µg in gel foam): 13.10% and 12.59%
ChAT-Positive Motor Neurons Average/Group ([2]; 25 µg in gel foam): 19.01*
ChAT-Positive Motor Neurons Experimental/Control ([2]; 25 µg in gel foam): 95/597 and 142/642
ChAT-Positive Motor Neurons % ([2]; 25 µg in gel foam): 15.91% and 22.12%
ChAT-Positive Motor Neurons Average/Group ([2]; 50 µg in gel foam): 41.34*
ChAT-Positive Motor Neurons Experimental/Control ([2]; 50 µg in gel foam): 278/637 and 188/484
ChAT-Positive Motor Neurons % ([2]; 50 µg in gel foam): 43.85% and 38.84%
ChAT-Positive Motor Neurons Average/Group ([2]; 100 µg in gel foam): 32.61*
ChAT-Positive Motor Neurons Experimental/Control ([2]; 100 µg in gel foam): 465/920 and 235/784 and 178/770 and 182/679
ChAT-Positive Motor Neurons % ([2]; 100 µg in gel foam): 50.54% and 29.98% and 23.12% and 26.80%
ChAT-Positive Motor Neurons Average/Group ([2]; 200 µg in gel foam): 24.96*
ChAT-Positive Motor Neurons Experimental/Control ([2]; 200 µg in gel foam): 99/461 and 159/559
ChAT-Positive Motor Neurons % ([2]; 200 µg in gel foam): 21.48% and 28.44%
weight loss, mortality, gross tissue damage ([2]; any doses tested, hypoglossal axotomy model): no associated weight loss, mortality, or gross tissue damage
more ChAT-immunoreactive motor neurons compared to the axotomized, untreated control ([2]; maximally effective dose (50 µg), 7 days postaxotomy): 40%
motoneurons survived (chick motoneurons; after 48 h, Compound III-3 300 nM, serum-free conditions, muscle extract 30 µg/ml): 79%
motoneurons alive (chick motoneurons; after four days in culture): 56%
concentration of maximal survival effect (chick motoneurons; serum-free conditions, higher concentrations showed a progressively reduced effect): 300 nM
concentration at which the survival effect reached a plateau ([3]; 10% serum (Fig. 16)): around 1 µM
DRG survival ([3]; after four days): 52%
